From ChEMBL document CHEMBL1255318, “Effect of low-dose ritonavir on the pharmacokinetics of the CXCR4 antagonist AMD070 in healthy volunteers” (Antimicrob Agents Chemother, 2008) come the findings set out here.

Common to all, as to type: ADME, organism-based
Data set [1] in a line: Apparent volume of distribution during terminal phase in […] at […], po administered as single dose measured on day 1 by HPLC. More on the design: route oral. The following applies: human, in vivo, read-out: Vz/F.
Data set [2] is described as follows: Apparent volume of distribution during terminal phase in […] at […], po administered as single dose measured on day 17 by HPLC in presence of 29 doses of […]. The conditions noted are these: human, in vivo, read-out: Vz/F.
Data set [3] is described as follows: Cmax in […] at […], po administered as single dose measured on day 1 by HPLC. The arrangement: route oral. The conditions noted are these: human, in vivo.
Data set [4] in a line: AUC (0 to infinity) in […] at […], po administered as single dose measured on day 3 by HPLC in presence of […]. The arrangement: time infinity, route oral. The conditions noted are these: human, plasma.
Data set [5] is described as follows: AUC in rat in presence of ritonavir. The following applies: plasma.
Data set [6] can be described thus: Tmax in […] at […], po administered as single dose measured on day 3 by HPLC in presence of […]. The conditions noted are these: human, in vivo.
Data set [7] in a line: Tmax in […] at […], po administered as single dose measured on day 1 by HPLC. The arrangement: route oral. The conditions noted are these: human, in vivo.
Data set [8] can be described thus: Apparent volume of distribution during terminal phase in […] at […], po administered as single dose measured on day 3 by HPLC in presence of […]. The following applies: human, in vivo, read-out: Vz/F.
Data set [9] is described as follows: Cmax in […] at […], po administered as single dose measured on day 17 by HPLC in presence of 29 doses of […]. The conditions noted are these: human, in vivo. More on the design: route oral.
Data set [10] can be described thus: AUC (0 to infinity) in […] at […], po administered as single dose measured on day 17 by HPLC in presence of 29 doses of […]. The arrangement: route oral, time infinity. The conditions noted are these: human, plasma.
A short description of data set [11]: Cmax in rat in presence of ritonavir. The conditions noted are these: in vivo.
A short description of data set [12]: Oral bio availability in rat in presence of ritonavir. The conditions noted are these: in vivo.
Data set [13] is described as follows: Tmax in […] at […], po administered as single dose measured on day 17 by HPLC in presence of 29 doses of […]. The following applies: human, in vivo.
Data set [14] is described as follows: Cmax in […] at […], po administered as single dose measured on day 3 by HPLC in presence of […]. More on the design: route oral. The following applies: human, in vivo.
A short description of data set [15]: AUC (0 to infinity) in […] at […], po administered as single dose measured on day 1 by HPLC. The conditions noted are these: human, plasma. The arrangement: route oral, time infinity.

As a reminder, the Cmax is the maximum level reached in the sampled fluid or tissue. As a reminder, the AUC(0-inf) is the area under the concentration-time curve extrapolated to infinity. What is called AUC is concentration integrated over time. The term Tmax denotes the time at which the peak concentration occurs. For orientation: bioavailability means the share of a dose that reaches the circulation, judged against a reference dose that is usually intravenous.

As for `NCCCCN(Cc1nc2ccccc2[nH]1)[C@H]1CCCc2cccnc21` [MAVORIXAFOR], the values for the Vd/F in data set [1], in [2] and in [8] were 4200 L, 3930 L and 3450 L, respectively. Besides, the Cmax in data set [3] amounted to 256 ng/mL; in data set [9] it was 333 ng/mL; in data set [11] it was 158 ng/mL; in [14], 362 ng/mL. The area under the curve AUC(0-inf) stood at 1640 ng·h/mL in data set [4], 1200 ng·h/mL in data set [10] and 934 ng·h/mL in data set [15]. The AUC in data set [5] turned out to be 58 ng·h/mL. In addition, the figures for the Tmax in [6], in data set [7] and in data set [13] were 2 h, 3 h and 1 h, respectively. Further, in [12], the bioavailability came out at 66%.
